Experimental data from paper PMC5390247, “New method for quantification of gasotransmitter hydrogen sulfide in biological matrices by LC-MS/MS” (Scientific Reports, 2017).

Tests used:
[1] = molecular target: T1, yeast CSE enzyme (CYS3) (Saccharomyces cerevisiae, UniProt P31373); test: H2S production from SPRC by LC-MS/MS (sulfide dibimane); type: biochemical; settings: 473 uM PAG; 473 uM SPRC as substrate; complete inhibition stated in words
T1 construct: full-length CYS3 gene amplified from S288C gDNA, expressed in E. coli (pTrc-CYS3), nickel column, SUMO-tag cut off
T1 sequence (P31373 2-394): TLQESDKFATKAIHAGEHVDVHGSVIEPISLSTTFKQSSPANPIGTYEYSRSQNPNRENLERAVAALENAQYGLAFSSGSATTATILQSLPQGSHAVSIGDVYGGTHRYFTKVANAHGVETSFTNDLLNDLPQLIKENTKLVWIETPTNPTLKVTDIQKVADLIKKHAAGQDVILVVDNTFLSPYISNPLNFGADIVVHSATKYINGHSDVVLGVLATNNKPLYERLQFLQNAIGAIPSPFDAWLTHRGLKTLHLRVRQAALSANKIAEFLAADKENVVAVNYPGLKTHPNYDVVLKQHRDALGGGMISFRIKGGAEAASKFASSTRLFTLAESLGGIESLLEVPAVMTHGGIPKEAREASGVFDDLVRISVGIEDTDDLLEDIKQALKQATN

[2] = molecular target: T1, yeast CSE enzyme (CYS3); test: H2S production by LC-MS/MS and substrate consumption; type: biochemical

C#CCC(N)C(=O)O (racemic) [PAG, propargylglycine]
H2S production from SPRC by LC-MS/MS (sulfide dibimane) [1]: propargylglycine (PAG) completely inhibited the hydrogen sulfide production of CYS3 by using SPRC

N[C@@H](CCSC[C@H](N)C(=O)O)C(=O)O [CTT, L-cystathionine]
H2S production by LC-MS/MS and substrate consumption ([2]; 473 uM CTT): hydrogen sulfide production increased rapidly whereas the amount of L-cystathionine (CTT) decreased accordingly

C#CCSC[C@H](N)C(=O)O [SPRC, S-propargyl-cysteine]
H2S production by LC-MS/MS and substrate consumption ([2]; 473 uM SPRC): SPRC elimination was accomplished with increased level of hydrogen sulfide in the CYS3 mixture
